Drawing on ChEMBL document CHEMBL1146876, “Structurally diverse 5-substituted pyrimidine nucleosides as inhibitors of Leishmania donovani promastigotes in vitro” (Bioorg Med Chem Lett, 2006), this text covers IC50 for 34 compounds.

pIC50: −log10 of the molar value. Bounds are passed on as bounds.

For this test, the system named is Leishmania donovani. Briefly: Antileishmanial activity against Leishmania donovani LV9 promastigotes by MTT method. The class given is functional, organism-based.
In turn, `CC(=O)OC[C@H]1O[C@@H](n2cc(C3C(C#N)=C(N)OC4=C3C(=O)CC(c3ccc(F)cc3)C4)c(=O)[nH]c2=O)C[C@@H]1OC(C)=O` (some centres undefined) had a pIC50 of 4.02.

Consider `N#CC1=C(N)Oc2cc3ccccc3c(O)c2C1c1cn([C@H]2C[C@H](O)[C@@H](CO)O2)c(=O)[nH]c1=O` (some centres undefined), for which the pIC50 is under 4.00.

As for `CC(=O)OC[C@H]1O[C@@H](n2cc(C3C(C#N)=C(N)OC4=C3C(=O)CC(c3ccccc3)C4)c(=O)[nH]c2=O)C[C@@H]1OC(C)=O` (some centres undefined), the pIC50 was 4.07.

`N#CC(C#N)=Cc1cn([C@H]2C[C@H](O)[C@@H](CO)O2)c(=O)[nH]c1=O` gave a pIC50 of 5.82.

Regarding `CC(=O)OC[C@H]1O[C@@H](n2cc(C=O)c(=O)[nH]c2=O)C[C@@H]1OC(C)=O`, the pIC50 is under 4.00.

Turning to `CC(=O)OC[C@H]1O[C@@H](n2cc(C=C(C#N)C#N)c(=O)[nH]c2=O)C[C@@H]1OC(C)=O`, the pIC50 was 4.52.

Regarding `CC(=O)OC[C@H]1O[C@@H](n2cc(/C=C/C#N)c(=O)[nH]c2=O)C[C@@H]1OC(C)=O`, the pIC50 was under 4.00.

In turn, `N#C/C=C/c1cn([C@H]2C[C@H](O)[C@@H](CO)O2)c(=O)[nH]c1=O` had a pIC50 of 4.04.

`COC(=O)/C(C#N)=C/c1cn([C@H]2C[C@H](O)[C@@H](CO)O2)c(=O)[nH]c1=O` had a pIC50 of 5.14.

Turning to `N#CC1=C(N)OC2=C(C(=O)CCC2)C1c1cn([C@H]2C[C@H](O)[C@@H](CO)O2)c(=O)[nH]c1=O` (some centres undefined), the pIC50 is 5.85.

In turn, `CCOC(=O)C1=C(N)OC2=C(C(=O)CC(C)(C)C2)C1c1cn([C@H]2C[C@H](O)[C@@H](CO)O2)c(=O)[nH]c1=O` (some centres undefined) showed a pIC50 of 5.14.

Compound `CC(=O)OC[C@H]1O[C@@H](n2cc(C3C(C#N)=C(N)Oc4cc5ccccc5c(O)c43)c(=O)[nH]c2=O)C[C@@H]1OC(C)=O` (some centres undefined) showed a pIC50 of under 4.00.

On to `CC(=O)OC[C@H]1O[C@@H](n2cc(C3C(C#N)=C(N)OC4=C3C(=O)CCC4)c(=O)[nH]c2=O)C[C@@H]1OC(C)=O` (some centres undefined), for which the pIC50 was 4.16.

`CC(=O)OC[C@H]1O[C@@H](n2cc(C3C(C#N)=C(N)OC4=C3C(=O)CC(c3ccc(Cl)cc3)C4)c(=O)[nH]c2=O)C[C@@H]1OC(C)=O` (some centres undefined) showed a pIC50 of 4.10.

With `CC1(C)CC(=O)C2=C(C1)OC(N)=C(C#N)C2c1cn([C@H]2C[C@H](O)[C@@H](CO)O2)c(=O)[nH]c1=O` (some centres undefined), the pIC50 is under 4.00.

The compound `CC1=NN(c2ccccc2)C(=O)/C1=C(\C)c1cn([C@H]2C[C@H](O)[C@@H](CO)O2)c(=O)[nH]c1=O` gave a pIC50 of 5.52.

Compound `CC(=O)OC[C@@H]1O[C@H](n2cc(C3C(C#N)=C(N)OC4CC(c5ccc(N(C)C)cc5)CC(=O)C43)c(=O)[nH]c2=O)C[C@H]1OC(C)=O` (some centres undefined) had a pIC50 of 4.00.

The compound `CN(C)c1ccc(C2CC(=O)C3C(C2)OC(N)=C(C#N)C3c2cn([C@@H]3C[C@@H](O)[C@H](CO)O3)c(=O)[nH]c2=O)cc1` (some centres undefined) gave a pIC50 of 5.21.

The compound `N#Cc1cn([C@H]2C[C@H](O)[C@@H](CO)O2)c(=O)[nH]c1=O` showed a pIC50 of under 4.00.

`CCOC(=O)/C(C#N)=C/c1cn([C@H]2C[C@H](OC(C)=O)[C@@H](COC(C)=O)O2)c(=O)[nH]c1=O` showed a pIC50 of 4.41.

In turn, `CN(C)c1ccc2c(c1)OC(N)=C(C#N)C2c1cn([C@H]2C[C@H](O)[C@@H](CO)O2)c(=O)[nH]c1=O` (some centres undefined) gave a negative-log IC50 (pIC50) of under 4.00.

Compound `O=Cc1cn([C@H]2C[C@H](O)[C@@H](CO)O2)c(=O)[nH]c1=O` showed a pIC50 of 6.05.

As to `CCOC(=O)C1=C(N)OC2=C(C(=O)CC(C)(C)C2)C1c1cn([C@H]2C[C@H](OC(C)=O)[C@@H](COC(C)=O)O2)c(=O)[nH]c1=O` (some centres undefined), the pIC50 is under 4.00.

Compound `CC1CC(=O)C2=C(C1)OC(N)=C(C#N)C2c1cn([C@H]2C[C@H](O)[C@@H](CO)O2)c(=O)[nH]c1=O` (some centres undefined) showed a pIC50 of 5.03.

For the compound `N#CC1=C(N)OC2=C(C(=O)CC(c3ccc(Cl)cc3)C2)C1c1cn([C@H]2C[C@H](O)[C@@H](CO)O2)c(=O)[nH]c1=O` (some centres undefined), the pIC50 is under 4.00.

Compound `CCOC(=O)C1=C(N)OC2=C(C(=O)CCC2)C1c1cn([C@H]2C[C@H](O)[C@@H](CO)O2)c(=O)[nH]c1=O` (some centres undefined) gave a pIC50 of 4.98.

Regarding `N#CC1=C(N)OC2=C(C(=O)CC(c3ccc(F)cc3)C2)C1c1cn([C@H]2C[C@H](O)[C@@H](CO)O2)c(=O)[nH]c1=O` (some centres undefined), the pIC50 was 5.08.

In the case of `CC(=O)OC[C@H]1O[C@@H](n2cc(C3C(C#N)=C(N)OC4=C3C(=O)CC(C)C4)c(=O)[nH]c2=O)C[C@@H]1OC(C)=O` (some centres undefined), the pIC50 is under 4.00.

Compound `CC(=O)OC[C@H]1O[C@@H](n2cc(C3C(C#N)=C(N)OC4=C3C(=O)CC(C)(C)C4)c(=O)[nH]c2=O)C[C@@H]1OC(C)=O` (some centres undefined) gave a pIC50 of 4.09.

As for `CC(=O)OC[C@H]1O[C@@H](n2cc(/C=C\C#N)c(=O)[nH]c2=O)C[C@@H]1OC(C)=O`, the pIC50 is under 4.00.

Take `CCOC(=O)/C(C#N)=C/c1cn([C@H]2C[C@H](O)[C@@H](CO)O2)c(=O)[nH]c1=O`: the pIC50 was 5.72.

As to `C[C@@H]1[C@H](O)[C@@H](C)/C=C/C=C/C=C/C=C/C=C/C=C/C=C/[C@H](O[C@@H]2O[C@H](C)[C@@H](O)[C@H](N)[C@@H]2O)C[C@@H]2O[C@](O)(C[C@@H](O)C[C@@H](O)[C@H](O)CC[C@@H](O)C[C@@H](O)CC(=O)O[C@H]1C)C[C@H](O)[C@H]2C(=O)O` [AMPHOTERICIN B], the pIC50 is 7.00.

`N=C(N)c1ccc(OCCCCCOc2ccc(C(=N)N)cc2)cc1` [PENTAMIDINE] had a pIC50 of 5.18.

As to `Cc1cn([C@H]2C[C@H](N=[N+]=[N-])[C@@H](CO)O2)c(=O)[nH]c1=O` [ZIDOVUDINE], the pIC50 is 5.47.
